Where two headings read alike, the source gives them in different places.
Tested on: Clostridium perfringens ATCC 13124
Type: cell-based
Conditions: 37° C., culture broth

CC1=C2CC[C@@H](C)[C@H]2[C@H]2[C@@H](CC1)C2(C)C [(+) ledene]
growth of Clostridium perfringens (1.2 ppm sesquiterpene): −
growth of Clostridium perfringens (2 ppm sesquiterpene): −
growth of Clostridium perfringens (100 ppm sesquiterpene): −

C[C@@H]1CC[C@@H]2[C@@H]1[C@H]1[C@@H](CC[C@]2(C)O)C1(C)C [(−) epiglobulol]
growth of Clostridium perfringens (0.5 ppm sesquiterpene): +
growth of Clostridium perfringens (2 ppm sesquiterpene): +
growth of Clostridium perfringens (10 ppm sesquiterpene): −
growth of Clostridium perfringens (100 ppm sesquiterpene): −

C[C@@H]1CC[C@@H]2[C@H](C3=C1CC[C@H]3C)C2(C)C [(−) iso-ledene]
growth of Clostridium perfringens (0.5 ppm sesquiterpene): +
growth of Clostridium perfringens (100 ppm sesquiterpene): −

C=C1CC[C@@H]2[C@H]([C@@H]3[C@H](C)CC[C@@H]13)C2(C)C [Aromadendrene]
growth of Clostridium perfringens (0.5 ppm sesquiterpene): +
growth of Clostridium perfringens (100 ppm sesquiterpene): −

C[C@@H]1CC[C@H]2C(C)(C)[C@H]3C[C@@]12CC[C@@]3(C)O [Cedrol]
growth of Clostridium perfringens (2 ppm sesquiterpene): +
growth of Clostridium perfringens (10 ppm sesquiterpene): −

CC(C)=CCCC(C)=CCCC(C)=CC=O [Farnesal]
growth of Clostridium perfringens (2 ppm sesquiterpene): +

CC(C)=C1C/C=C(\C)CC/C=C(\C)CC1=O [Germacrone]
growth of Clostridium perfringens (0.5 ppm sesquiterpene): +
growth of Clostridium perfringens (6 ppm sesquiterpene): +
growth of Clostridium perfringens (30 ppm sesquiterpene): −
growth of Clostridium perfringens (100 ppm sesquiterpene): −

C=C1[C@H]2CC[C@@H]3[C@H]2C(C)(C)CCC[C@]13C [Longifolene]
growth of Clostridium perfringens (0.3 ppm sesquiterpene): +
growth of Clostridium perfringens (1.2 ppm sesquiterpene): −
growth of Clostridium perfringens (2 ppm sesquiterpene): −
growth of Clostridium perfringens (10 ppm sesquiterpene): −

C=CC(C)(O)CCC=C(C)CCC=C(C)C (centres unmarked) [Nerolidol]
growth of Clostridium perfringens (2 ppm sesquiterpene): +
growth of Clostridium perfringens (10 ppm sesquiterpene): −

C=C1CC[C@@H]2[C@H]([C@@H]3[C@H](C)CC[C@H]13)C2(C)C [allo-aromadendrene]
growth of Clostridium perfringens (2 ppm sesquiterpene): −
growth of Clostridium perfringens (100 ppm sesquiterpene): −

CC(=O)O[C@]1(C)CC[C@@]23C[C@@H]1C(C)(C)[C@@H]2CC[C@H]3C [cedryl acetate]
growth of Clostridium perfringens (2 ppm sesquiterpene): −
growth of Clostridium perfringens (10 ppm sesquiterpene): −

CC(=O)OCC=C(C)CCC=C(C)CCC=C(C)C [farnesyl acetate]
growth of Clostridium perfringens (2 ppm sesquiterpene): −
growth of Clostridium perfringens (10 ppm sesquiterpene): −

CC(=O)CCC=C(C)CCC=C(C)CCC=C(C)C [farnesyl acetone]
growth of Clostridium perfringens (2 ppm sesquiterpene): −
growth of Clostridium perfringens (10 ppm sesquiterpene): −

CC(C)=CCC/C(C)=C/CC/C(C)=C/CO [trans-trans farnesol]
growth of Clostridium perfringens (2 ppm sesquiterpene): +
growth of Clostridium perfringens (10 ppm sesquiterpene): −

CC1=CC[C@@]23C[C@@H]1C(C)(C)[C@@H]2CC[C@H]3C [α-cedrene]
growth of Clostridium perfringens (1.2 ppm sesquiterpene): −
growth of Clostridium perfringens (2 ppm sesquiterpene): −
growth of Clostridium perfringens (10 ppm sesquiterpene): −

CC1=CC[C@H]2[C@H]3[C@@H]1[C@]2(C)CC[C@H]3C(C)C [α-copaene]
growth of Clostridium perfringens (0.5 ppm sesquiterpene): +
growth of Clostridium perfringens (1.2 ppm sesquiterpene): −
growth of Clostridium perfringens (100 ppm sesquiterpene): −

CC1=CC[C@@]23[C@@H]([C@@H]12)[C@H](C(C)C)CC[C@H]3C [α-cubebene]
growth of Clostridium perfringens (1.2 ppm sesquiterpene): −
growth of Clostridium perfringens (100 ppm sesquiterpene): −

C/C1=C\CC/C(C)=C/CC(C)(C)/C=C/C1 [α-humulene (α-caryophyllene)]
growth of Clostridium perfringens (0.3 ppm sesquiterpene): +
growth of Clostridium perfringens (0.4 ppm sesquiterpene): +
growth of Clostridium perfringens (1.2 ppm sesquiterpene): −
growth of Clostridium perfringens (2 ppm sesquiterpene): −
growth of Clostridium perfringens (10 ppm sesquiterpene): −

C=C1CC/C=C(\C)CC[C@@H]2[C@@H]1CC2(C)C [β-caryophyllene]
growth of Clostridium perfringens (0.2 ppm sesquiterpene): +
growth of Clostridium perfringens (1 ppm sesquiterpene): −
growth of Clostridium perfringens (2 ppm sesquiterpene): −
growth of Clostridium perfringens (100 ppm sesquiterpene): −

C=C1CC[C@@]23C[C@@H]1C(C)(C)[C@@H]2CC[C@H]3C [β-cedrene]
growth of Clostridium perfringens (1.2 ppm sesquiterpene): −
growth of Clostridium perfringens (2 ppm sesquiterpene): −
growth of Clostridium perfringens (10 ppm sesquiterpene): −

C=C1C/C=C/C(C)(C)C/C=C(\C)CCC1 [β-humulene]
growth of Clostridium perfringens (0.4 ppm sesquiterpene): +
growth of Clostridium perfringens (1.2 ppm sesquiterpene): −

C=C1C=CC(C)(C)CCCC(C)=CCC1 [γ-humulene]
growth of Clostridium perfringens (0.4 ppm sesquiterpene): +

(−) globulol
growth of Clostridium perfringens (0.5 ppm sesquiterpene): +
growth of Clostridium perfringens (2 ppm sesquiterpene): +
growth of Clostridium perfringens (10 ppm sesquiterpene): −
growth of Clostridium perfringens (100 ppm sesquiterpene): −

bisabolene/farnesene
growth of Clostridium perfringens (0.3 ppm sesquiterpene): +
growth of Clostridium perfringens (1.2 ppm sesquiterpene): −
growth of Clostridium perfringens (2 ppm sesquiterpene): −
growth of Clostridium perfringens (10 ppm sesquiterpene): −

cedrene-9-ol
growth of Clostridium perfringens (2 ppm sesquiterpene): +
growth of Clostridium perfringens (10 ppm sesquiterpene): +

α-bisabolol
growth of Clostridium perfringens (2 ppm sesquiterpene): +

Reference: US8906967B2 (priority 2007, dated 2014)
